Assay results: patent US5709864A, “Cosmetic or pharmaceutical and particularly dermatological, composition containing an extract of tephrosia, particularly Tephrosia purpurea” (priority 1993, dated 1998)

Test system: adenylate cyclase
Experiment: stimulation of adenylate cyclase activity in purified fibroblast (3T3 F442A) cell membranes, AMPc measured by radioimmunoassay
Format: biochemical, mouse
Details: at 0.05 g/l, 37° C., 3T3 F442A fibroblast membranes; basal activity without effector = 100%
Description: Cell membranes are initially obtained by culturing to confluence fibroblasts of the 3T3 F442A line commercially available from Flow Laboratories.
These fibroblast cell membranes which constitute an enzyme source, are incubated in a reaction medium in the presence of ATP at 37° C. for a predefined length of time.
The resulting AMPc is measured by radioimmunoassay. Taking the basal activity, i.e. activity without an effector, as being 100%, it is possible to determine the influence of an effector on the enzyme system.
Cell membranes are purified from the fibroblast in culture.
In this context, it should be observed that purification of cell membranes releases numerous enzymes into the assay medium. Two of these enzymes are undesirable in implementing the test. They comprise firstly Na^+, K^+ ATPase which transform ATP into adenosine diphosphate, and secondly phosphodiesterase 3',5'-AMPc which degrades cyclic AMP into AMP. Thus, in order to obtain reliable results from the test, it is essential to inhibit those two enzymes. The first is inhibited by means of ouabain, and the second by means of theophylline.
The reaction medium is thus constituted by:
50 μl of a 5 mM solution of […] (ATP) as substrate;
100 μl of a 20 mM solution of ouabain as an inhibitor of ATPase;
100 μl of a 20 mM solution of theophylline as an inhibitor of phosphodiesterase; and […]

C=C[C@@]1(C)CC(=O)[C@]2(O)[C@@]3(C)[C@@H](O)CCC(C)(C)[C@@H]3[C@H](O)[C@H](OC(C)=O)[C@@]2(C)O1 [forskoline]
% activity (adenylate cyclase; basal activity = 100): 225%
